Measurements published in PubChem BioAssay (NCI).
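GI50 marks 50% less growth. TGI: concentration producing complete growth inhibition.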

Experiments:
Assay in all cases: DTP human tumour cell line panel, 384-well format
786-0 renal = tested on: 786-0 renal
A498 renal = tested on: A498 renal
A549 NSCLC = tested on: A549 NSCLC
ACHN renal = tested on: ACHN renal
BT-549 breast = tested on: BT-549 breast
CAKI-1 renal = tested on: CAKI-1 renal
CCRF-CEM leukemia = tested on: CCRF-CEM leukemia
COLO 205 colon = tested on: COLO 205 colon
DU-145 prostate = tested on: DU-145 prostate
HCC-2998 colon = tested on: HCC-2998 colon
HCT-116 colon = tested on: HCT-116 colon
HCT-15 colon = tested on: HCT-15 colon
HL-60(TB) leukemia = tested on: HL-60(TB) leukemia
HOP-62 NSCLC = tested on: HOP-62 NSCLC
HOP-92 NSCLC = tested on: HOP-92 NSCLC
HT29 colon = tested on: HT29 colon
IGROV1 ovarian = tested on: IGROV1 ovarian
K-562 leukemia = tested on: K-562 leukemia
KM12 colon = tested on: KM12 colon
LOX IMVI melanoma = tested on: LOX IMVI melanoma
M14 melanoma = tested on: M14 melanoma
MALME-3M melanoma = tested on: MALME-3M melanoma
MCF7 breast = tested on: MCF7 breast
MDA-MB-231 breast = tested on: MDA-MB-231 breast
MDA-MB-435 melanoma = tested on: MDA-MB-435 melanoma
MDA-MB-468 breast = tested on: MDA-MB-468 breast
MOLT-4 leukemia = tested on: MOLT-4 leukemia
NCI-H226 lung = tested on: NCI-H226 lung
NCI-H23 lung = tested on: NCI-H23 lung
NCI-H322M lung = tested on: NCI-H322M lung
NCI-H460 NSCLC = tested on: NCI-H460 NSCLC
NCI-H522 lung = tested on: NCI-H522 lung
NCI/ADR-RES ovarian = tested on: NCI/ADR-RES ovarian
OVCAR-3 ovarian = tested on: OVCAR-3 ovarian
OVCAR-4 ovarian = tested on: OVCAR-4 ovarian
OVCAR-5 ovarian = tested on: OVCAR-5 ovarian
OVCAR-8 ovarian = tested on: OVCAR-8 ovarian
PC-3 prostate = tested on: PC-3 prostate
RPMI-8226 leukemia = tested on: RPMI-8226 leukemia
RXF 393 renal = tested on: RXF 393 renal
SF-268 CNS = tested on: SF-268 CNS
SF-295 CNS = tested on: SF-295 CNS
SF-539 CNS = tested on: SF-539 CNS
SK-MEL-2 melanoma = tested on: SK-MEL-2 melanoma
SK-MEL-28 melanoma = tested on: SK-MEL-28 melanoma
SK-MEL-5 melanoma = tested on: SK-MEL-5 melanoma
SK-OV-3 ovarian = tested on: SK-OV-3 ovarian
SN12C renal = tested on: SN12C renal
SNB-19 CNS = tested on: SNB-19 CNS
SR leukemia = tested on: SR leukemia
SW-620 colon = tested on: SW-620 colon
T-47D breast = tested on: T-47D breast
TK-10 renal = tested on: TK-10 renal
U251 glioblastoma = tested on: U251 glioblastoma
UACC-257 melanoma = tested on: UACC-257 melanoma
UACC-62 melanoma = tested on: UACC-62 melanoma
UO-31 renal = tested on: UO-31 renal

Work on `CCOc1cc(C(C)(C)C)ccc1C1=N[C@@](C)(c2ccc(Cl)cc2)[C@@](C)(c2ccc(Cl)cc2)N1C(=O)N1CCN(CCCS(C)(=O)=O)CC1` yielded a GI50 ([…]-0 renal) of 2510 nM, a TGI (786-0 renal) of 7150 nM and a GI50 (A498 renal) of 185 nM. The TGI (A498 renal) was 1370 nM, the GI50 (A549 NSCLC) was 405 nM and the TGI (A549 NSCLC) was 1630 nM. The GI50 (ACHN renal) was 205 nM, the TGI (ACHN renal) was 1210 nM and the GI50 (BT-549 breast) was 2350 nM. It also gave a TGI (BT-549 breast) of 5590 nM, a GI50 (CAKI-1 renal) of 122 nM and a TGI (CAKI-1 renal) of 1470 nM. The GI50 (CCRF-CEM leukemia) was 2120 nM, the TGI (CCRF-CEM leukemia) was 3700 nM and the GI50 (COLO 205 colon) was 3540 nM. The TGI (COLO 205 colon) was 9600 nM, the GI50 (DU-145 prostate) was 3160 nM and the TGI (DU-145 prostate) was 10100 nM. It also gave a GI50 (HCC-2998 colon) of 1470 nM, a TGI (HCC-2998 colon) of 2960 nM and a GI50 (HCT-116 colon) of 327 nM. It also gave a TGI (HCT-116 colon) of 1610 nM, a GI50 (HCT-15 colon) of 1900 nM and a TGI (HCT-15 colon) of 3490 nM. It also gave a GI50 (HL-60(TB) leukemia) of 2560 nM, a TGI (HL-60(TB) leukemia) of 4040 nM and a GI50 (HOP-62 NSCLC) of 2480 nM. For the same compound, the TGI (HOP-62 NSCLC) was 6590 nM, the GI50 (HOP-92 NSCLC) was 2240 nM and the TGI (HOP-92 NSCLC) was 4680 nM. For the same compound, the GI50 (HT29 colon) was 1870 nM, the TGI (HT29 colon) was 3290 nM and the GI50 (IGROV1 ovarian) was 1410 nM. It also gave a TGI (IGROV1 ovarian) of 3320 nM, a GI50 (K-562 leukemia) of 2940 nM and a TGI (K-562 leukemia) of 8630 nM. The GI50 (KM12 colon) was 2230 nM, the TGI (KM12 colon) was 4770 nM and the GI50 (LOX IMVI melanoma) was 892 nM. The TGI (LOX IMVI melanoma) was 2120 nM, the GI50 (M14 melanoma) was 1070 nM and the TGI (M14 melanoma) was 3240 nM. For the same compound, the GI50 (MALME-3M melanoma) was 753 nM, the TGI (MALME-3M melanoma) was 2620 nM and the GI50 (MCF7 breast) was 411 nM. For the same compound, the TGI (MCF7 breast) was 1940 nM, the GI50 (MDA-MB-231 breast) was 2660 nM and the TGI (MDA-MB-231 breast) was 6530 nM. It also gave a GI50 (MDA-MB-435 melanoma) of 3940 nM, a TGI (MDA-MB-435 melanoma) of 11700 nM and a GI50 (MDA-MB-468 breast) of 2040 nM. For the same compound, the TGI (MDA-MB-468 breast) was 5160 nM, the GI50 (MOLT-4 leukemia) was 29.6 nM and the TGI (MOLT-4 leukemia) was 97.5 nM. It also gave a GI50 (NCI-H226 lung) of 108 nM, a TGI (NCI-H226 lung) of 359 nM and a GI50 (NCI-H23 lung) of 5590 nM. For the same compound, the TGI (NCI-H23 lung) was 16400 nM, the GI50 (NCI-H322M lung) was 2280 nM and the TGI (NCI-H322M lung) was 3960 nM. It also gave a GI50 (NCI-H460 NSCLC) of 224 nM, a TGI (NCI-H460 NSCLC) of 1300 nM and a GI50 (NCI-H522 lung) of 3250 nM. For the same compound, the TGI (NCI-H522 lung) was 8970 nM, the GI50 (NCI/ADR-RES ovarian) was 2370 nM and the TGI (NCI/ADR-RES ovarian) was 6070 nM. For the same compound, the GI50 (OVCAR-3 ovarian) was 2110 nM, the TGI (OVCAR-3 ovarian) was 3760 nM and the GI50 (OVCAR-4 ovarian) was 2530 nM. For the same compound, the TGI (OVCAR-4 ovarian) was 5890 nM, the GI50 (OVCAR-5 ovarian) was 3520 nM and the TGI (OVCAR-5 ovarian) was 10800 nM. For the same compound, the GI50 (OVCAR-8 ovarian) was 3560 nM, the TGI (OVCAR-8 ovarian) was 12600 nM and the GI50 (PC-3 prostate) was 2150 nM. It also gave a TGI (PC-3 prostate) of 4430 nM, a GI50 (RPMI-8226 leukemia) of 1820 nM and a TGI (RPMI-8226 leukemia) of 3220 nM. It also gave a GI50 (RXF 393 renal) of 2230 nM, a TGI (RXF 393 renal) of 4550 nM and a GI50 (SF-268 CNS) of 2650 nM. It also gave a TGI (SF-268 CNS) of 7380 nM, a GI50 (SF-295 CNS) of 1930 nM and a TGI (SF-295 CNS) of 3850 nM. It also gave a GI50 (SF-539 CNS) of 2030 nM, a TGI (SF-539 CNS) of 4250 nM and a GI50 (SK-MEL-2 melanoma) of 2260 nM. It also gave a TGI (SK-MEL-2 melanoma) of 4190 nM, a GI50 (SK-MEL-28 melanoma) of 3860 nM and a TGI (SK-MEL-28 melanoma) of 10900 nM. The GI50 (SK-MEL-5 melanoma) was 1390 nM, the TGI (SK-MEL-5 melanoma) was 2690 nM and the GI50 (SK-OV-3 ovarian) was 2600 nM. For the same compound, the TGI (SK-OV-3 ovarian) was 7360 nM, the GI50 (SN12C renal) was 2400 nM and the TGI (SN12C renal) was 5210 nM. For the same compound, the GI50 (SNB-19 CNS) was 3180 nM, the TGI (SNB-19 CNS) was 11300 nM and the GI50 (SR leukemia) was 20 nM. For the same compound, the TGI (SR leukemia) was 56.9 nM, the GI50 (SW-620 colon) was 4240 nM and the TGI (SW-620 colon) was 13200 nM. For the same compound, the GI50 (T-47D breast) was 2440 nM, the TGI (T-47D breast) was 8590 nM and the GI50 (TK-10 renal) was 2830 nM. For the same compound, the TGI (TK-10 renal) was 8930 nM, the GI50 (U251 glioblastoma) was 3710 nM and the TGI (U251 glioblastoma) was 11900 nM. The GI50 (UACC-257 melanoma) was 1440 nM, the TGI (UACC-257 melanoma) was 3140 nM and the GI50 (UACC-62 melanoma) was 67.8 nM. The TGI (UACC-62 melanoma) was 1590 nM, the GI50 (UO-31 renal) was 53.4 nM and the TGI (UO-31 renal) was 205 nM.
